Data set [1] in a line: Excretion and mass balance in urine and feces. In kind it is in vivo, human. Particulars: single oral administration. From the text: Six healthy male volunteers, 25–45 years of age, with a mean body weight of 83.3 kg (range 64.5–94.4) and a mean body mass index of 26.9 kg/m^2 (range 20.2–29.9) participated in the study. […] The subject release criterion was defined as follows: the combined urine and fecal radioactivity excretion for two consecutive days should fall below 1% of the dose administered.
Detailed procedures on sample collection, storage, and shipment are described in Online Resource 1. […] Urine and feces collected from each subject were pooled at predose and every 24 h thereafter. Fecal homogenates were prepared by adding water (four times the feces weight) and homogenizing.
(§1) TRA analysis was carried out at ABC Laboratories. The radioactivity in plasma (duplicate per time point) and urine samples (triplicate per time point) was quantitated by direct counting in a Beckman LS6000SC or LS6500 liquid scintillation counter (PerkinElmer Life and Analytical Sciences, Boston, MA, USA). Whole blood (duplicate per time point) and fecal homogenate (triplicate per time point) samples were oxidized, and the resultant ^14CO2 was trapped in Carbosorb (Calgon Carbon Corporation, Pittsburgh, PA, USA) in combination with Permafluor, followed by liquid scintillation counting to determine the radioactivity. Individual samples were counted for 5 min for whole blood and fecal matrices, and 10 min for plasma and urine matrices. Predose blood, plasma, urine, and feces samples served as respective control samples to determine and subtract the background radioactivity in the analysis.
All urine voided was collected and stored in containers at 5±3 °C until the collection interval was completed. Subjects voided in the morning prior to study drug administration.
Multiple collections of urine during each collection interval from each individual subject were pooled. The urine samples from each collection interval were well mixed, accurately weighed, and assessed for its pH. A 100 ml sample from each collection interval from each subject was aliquoted into a separately labeled container to be sent to ABC Laboratories for radioactivity analysis. An approximately 10 ml sample from each collection interval from each subject on day 8 and each day thereafter was used for TRA analysis at Celerion (Lincoln, NE). All urine samples were kept frozen at −80 ± 15 °C.
Stool collections began approximately 24 h prior to drug administration until the end of the postdose sampling period. The 24 h predose samples were used as control samples for the radioactivity analysis and metabolite profiling. Feces were collected daily (24 h collection periods) until subjects were discharged from the clinical research unit.
All fecal samples were collected in polypropylene containers; toilet paper was collected separately. The weight of each sample was recorded. Multiple collections of feces during each collection interval from each individual subject were pooled. The feces samples were thoroughly homogenized with water (4X the weight of the feces). A 100 g sample was aliquoted into a separately labeled container to be sent to ABC Laboratories for radioactivity analysis. An approximately 10 g sample from each collection interval from each subject on day 8 and each day thereafter was used for TRA analysis at Celerion. All fecal homogenate samples were kept frozen at −80 ± 15 °C.

The subject of another data set is human liver microsomes. The experiment in a line: In vitro metabolism with human liver microsomes and CYP-specific chemical inhibitors (data not shown). Particulars: CYP-specific chemical inhibitors. The format is in vitro ADME.
The nature of data set [2]: Metabolite profiling of urine (HPLC-radiochromatography). Particulars: 0–72 h pool. The format is in vivo, human. On the procedure: Predose and 0–72-h urine samples (grand pool of all six subjects) were prepared. Urine samples (5 mL) were centrifuged, the supernatant was transferred to a 15-mL polypropylene tube and placed on ice; the residues were extracted with 1 mL of methanol and the methanol extracts were added to the supernatants. The combined extracts were evaporated under nitrogen and reconstituted in 0.2 mL of methanol. A 0.010-mL aliquot of the reconstituted solution was removed for determination of radioactivity, and the remainder was transferred to HPLC vials and stored at −80 °C.
A Finnigan Surveyor HPLC system (Thermo Fisher Scientific Inc., San Jose, CA, USA), consisting of an LC pump plus an autosampler and a UV–Vis plus detector, was used mostly for profiling (except the post-24-h plasma samples, which were analyzed using a Dionex HPLC system). A Phenomenex® Gemini® C18, 5-μm, 3.0 × 100-mm column (Phenomenex Inc., Torrance, CA, USA) was used along with a C-12 guard column (4 × 2 mm). LC conditions were as follows: solvent A was 10 mM ammonium bicarbonate in water (pH 10.0) and solvent B was 100% methanol and the flow rate was 0.8 mL/min. The following gradient was employed (B%): 0–5 min (20%), 32 min (42%), 33 min (60%), 55 min (70%), 56–60 min (95%), and 62–70 min (20%).
Reconstituted solvent extracts (0.050–0.10 mL) of plasma, urine, or feces were injected onto the HPLC column. The post-column eluate was split after UV detection into two streams (0.64 and 0.16 mL/min). The 0.64-mL stream was diverted to a fraction collector (Gilson FX 204; Gilson Medical Electronics, Middleton, WI, USA) to be collected in 96-well plates at 0.16 min/well (ScintiPlates; PerkinElmer Life Sciences, Shelton, CT, USA), and the 0.16-mL stream was directed to the mass spectrometer. The solvent in the 96-well plates was removed at 40 °C using a Genevac evaporator (Genevac, Inc., Stone Ridge, NY, USA).
The radioactivity counts per minute (CPM) in each well was determined using a MicroBeta scintillation counter (PerkinElmer Life and Analytical Sciences). The resulting CPM vs. time data were processed using Excel (Microsoft Corporation, Seattle, WA, USA). The CPM in each well was background-subtracted (using the average CPM values of the blank region of the HPLC run). Radiochromatographic profiles were obtained by plotting the resulting net CPM values against time after injection. Radioactive peaks in the chromatographic profiles were identified, and the radioactivity in each peak was summed and reported as a percentage of TRA in the HPLC run.

The nature of data set [3]: Plasma pharmacokinetics of TRA, ponatinib and metabolites after a single oral 45-mg [14C]ponatinib dose. On the procedure: The subject release criterion was defined as follows: the combined urine and fecal radioactivity excretion for two consecutive days should fall below 1% of the dose administered.
Detailed procedures on sample collection, storage, and shipment are described in Online Resource 1. […] Fecal homogenates were prepared by adding water (four times the feces weight) and homogenizing.
as §1
M14 was quantitated using a different LC/MS/MS method (Online Resource 2). The pharmacokinetic analysis was carried out using WinNonlin® v6.4 (Pharsight Corp., Mountain View, CA, USA).
Aliquots of 30 µl of calibration standards, quality controls, and incurred plasma samples were transferred into a 96-well plate. Then 150 µl of ice-cold acetonitrile containing 50 ng/ml of AP30376 (d6-AP24600, internal standard) were added. The 96-well plate was vortexed for 10 min and then centrifuged at 4750 rpm for 20 min at 4°C. 100 µl aliquots of the supernatants were transferred into another 96-well plate and the samples were analyzed by liquid chromatography tandem mass spectrometry.

The conditions of data set [4]: co-administration of ketoconazole (potent CYP3A4 inhibitor) ref 11; cited from earlier work.
Where [5] appears, read: male, human, in vivo, po, 45 mg.

The source of these data is paper PMC5344956 (Cancer Chemotherapy and Pharmacology, 2017).

Some results are limits rather than exact numbers.

Consider `Cc1ccc(C(=O)Nc2ccc(CN3CCN(C)CC3)c(C(F)(F)F)c2)cc1C#Cc1cnc2cccnn12.Cl` [Ponatinib, 3-(imidazo[1,2-b]pyridazin-3-ylethynyl)-4-methyl-N-(4-((4-methylpiperazin-1-yl)methyl)-3-(trifluoromethyl)phenyl)benzamide hydrochloride], for which, in data set [1], the “elimination pathway N-demethylation, share of dose” value came to 8.3%; the “elimination pathway hydroxylation, share of dose” value is 18.0%; the “elimination pathway methylation, share of dose” value came out at 8.4%. For the same compound, the “elimination pathway amide bond hydrolysis, share of dose” value in data set [1] (estimated from 81% of urinary TRA and 5.4% of dose in urine) is 4.4%. Also, the “CYP enzymes that metabolize the compound” value in the data set with human liver microsomes is “metabolized mostly by CYP3A4 and to a lesser extent by CYP2D6 and CYP2C8”. The “% of total radioactive dose” value in data set [2] was less than 0.05%. For the same compound, the “% Distribution in matrix” value in data set [2] (% of urinary TRA) is listed as “Trace levels”. In addition, in data set [3] (human plasma, 144 h postdose), the “plasma level at 144 h postdose” value is “at or below detectable limits”. In data set [3] (setting [5]), the AUC(0-t) worked out at 3.48 µM·h, the time of peak concentration (Tmax) was determined as 5 h and the half-life is 27.4 h. The concentration at 144 h in data set [3] (male, human, plasma, oral, 45 mg) is less than 2.4 nM. In data set [4], the “increase of AUC0–∞ on co-administration of ketoconazole” value is recorded as 47% and the “increase of C max on co-administration of ketoconazole” value is 78%.

By AUC(0-t) is commonly meant the area under the concentration-time curve up to a stated or last time point. Usually Tmax stands for the time at which the peak concentration occurs. One may read the half-life as the time in which the quantity being followed falls by half.
